Experimental data from patent US20190308987A1, “DUAL MODULATORS OF BOTH MU AND KAPPA OPIOID RECEPTORS” (priority 2016, published 2019).
“Also recorded” adds a separate entry of the source.

Tests used:
[1] = test system: visceral pain (abdominal stretches); test: Acetic acid induced writhing assay; type: in vivo, Swiss Webster mice
Method: To determine whether BNAP provides KOR mediated analgesia acetic acid-induced abdominal stretches were counted in mice. Swiss Webster mice were allowed to acclimate in individual testing cages for at least 10 min. Following the acclimation period the vehicle or BNAP was administered via s.c injection at the specified dose. After waiting for 10 min the mice were injected intraperitoneally with 10 mL/kg 0.6% (wt/vol) acetic acid and returned to their observation chambers. After the first 3 min, the number of stretches and abdominal contractions were counted for 15 min. All values shown for abdominal stretching experiments represent separate groups of mice (n=4-8) as each animal was tested only once and euthanized immediately after testing.
In order to confirm the involvement of the KOR in the analgesia produced by BNAP in the Acetic Acid Induced Writhing test, this test was performed in the presence of the KOR-specific antagonist nor-Binaltorphimine 2HCl (nor-BNI). According to previous literature, nor-BNI antagonist activity reaches optimal selectivity and efficacy in the writhing test at 24 hours post administration.^27, 28 These animals were injected sub-cutaneously with either 10 mg/kg nor-BNI or saline 24 hours prior to initiation of the writhing test. The writhing test was then performed as described above (n=5-6).

[2] = biological target: T1, DOR (Homo sapiens, UniProt P41143); test: [35S]GTPγS-binding assay, DOR-expressing CHO cell membranes; type: biochemical
T1 construct: expressed in transfected cells; host or cells: CHO cells (membranes)
Method: [^35S]-GTPγS-Binding Assays using DOR- or KOR-Expressing CHO Cell Lines: Cell membranes (10 μg protein) were incubated with 10 μM GDP and 0.1 nM [^35S]-GTPγS in assay buffer in the presence and absence of varying concentrations of BNAP, 3 μM SNC80 (standard full agonist at DOR) or 3 μM U50,488H (standard full agonist at KOR) for 90 min at 30° C. Nonspecific binding was determined with 10 μM unlabeled GTPγS. The reaction was terminated and bound radioactivity determined as described above and previously.^9
(§1) All samples were assayed in triplicate and repeated at least twice for a total of 3 independent determinations. Results were reported as mean values±SEM. Concentration-effect curves were fit by nonlinear regression to a one-site binding model, using GraphPad Prism software, to determine EC50 and Emax values. IC50 values were obtained from Hill plots and analyzed by linear regression using Microsoft Excel software. Binding Ki values were determined from IC50 values using the Cheng-Prusoff equation: Ki=IC50/l+([L]/KD), where [L] is the concentration of […] and KD is the KD of the radioligand.

[3] = test system: morphine antinociception; test: Warm water tail immersion (tail flick) test; type: in vivo, Swiss Webster mice
Method: Male Swiss Webster mice (Harlan Laboratories, Indianapolis, Ind.) weighing 25-30 g were housed 5 to a cage in animal care quarters and maintained at […] on a 12 h light-dark cycle. Food and water were available ad libitum. The mice were brought to a test room (22±2° C., 12 h light-dark cycle), marked for identification and allowed 18 h to recover from transport and handling. Protocols and procedures were approved by the Institutional Animal Care and Use Committee (IACUC) at Virginia Commonwealth University Medical Center and comply with the recommendations of the IASP (International Association for the Study of Pain).
The warm water tail-immersion test was performed according to previously described methods using a water bath with the temperature maintained at 56±0.1° C.^20 Briefly, before giving the mice injections, a baseline (control) latency was determined. Only mice with a control reaction time of 2 to 4 s were used. The average baseline latency for these experiments was 3.0±0.1 s. The test latency after drug treatment was assessed at the appropriate time, and a 10 s maximal cutoff time was imposed to prevent tissue damage. Antinociception was quantified according to established procedures as the percentage of maximum possible effect (% MPE), which was calculated as follows: % MPE=[(test latency−control latency)/(10−control latency)]×100.^21 Percentage MPE was calculated for each mouse, using at least six mice per group.
Intracerebroventricular (ICV) injections were performed as described previously.^22 Mice were anesthetized with 2.5% isoflurane and a horizontal incision was made in the scalp. A needle was inserted to a depth of 3 mm into the lateral ventrical (2 mm rostral and 2 mm lateral at a 45° angle from the bregma). At intervals, 5 μL injections of drug or vehicle were made using this guide insertion to the same depth using a needle with a guard in nonanesthetized animals.^22, 23 Animals underwent the anesthetized surgery in the morning of the experiment and were then injected with drug at intervals indicated in the text without additional anesthesia. Immediately after testing, the animals were euthanized to minimize any type of distress, according to IACUC guidelines.

[4] = biological target: T2, delta opioid receptor (DOR) (Homo sapiens, UniProt P41143); test: Competitive radioligand binding, DOR ([3H]NTI); settings: read-out: Ki (nM) ± SEM
T2 construct: expressed in transfected cells; host or cells: CHO cells (membranes)
Method: The details of the Radioligand Binding and Functional Studies that were used were described previously.^19 Chinese hamster ovarian (CHO) cell lines were used as monoclonal opioid receptor expressing cells. The μ, δ, and κ opioid receptors were labeled with [^3H]naloxone, ^3H-naltrindole ([^3H]NTI) and ^3H-nor-Binaltorphimine ([^3H]norBNI). The opioid receptor expressing cell membranes were incubated with the radioligands at different concentrations of the drug under investigation at 30° C. for 1 h. With the absence and presence of 10 μM naltrexone, specific binding was got as the difference in binding obtained. The specific binding of the drugs to the radioligand was calculated from data using linear regression analysis of Hill plots.
as §1

T1 sequence (P41143 whole entry): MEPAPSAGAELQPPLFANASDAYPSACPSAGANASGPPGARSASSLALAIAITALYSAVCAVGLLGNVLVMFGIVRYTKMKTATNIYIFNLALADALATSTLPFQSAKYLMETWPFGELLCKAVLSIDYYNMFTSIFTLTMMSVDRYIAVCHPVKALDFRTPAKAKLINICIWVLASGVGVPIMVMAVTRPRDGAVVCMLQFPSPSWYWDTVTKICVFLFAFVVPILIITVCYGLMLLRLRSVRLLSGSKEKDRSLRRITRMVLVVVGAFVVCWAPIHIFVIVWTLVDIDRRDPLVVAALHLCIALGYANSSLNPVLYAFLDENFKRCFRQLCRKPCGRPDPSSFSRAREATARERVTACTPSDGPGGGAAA
T2 sequence (P41143 whole entry): as above

What does the source list for `O=C(N[C@@H]1CC[C@@]2(O)[C@H]3Cc4ccc(O)c5c4[C@@]2(CCN3CC2CC2)C1O5)c1cc[n+](Cc2ccccc2)cc1` (stereo partly shown) [BNAP]?
analgesia in presence of nor-BNI ([1]; 10 mg/kg nor-BNI s.c. 24 h before, morphine pelleted animals): effectively blocked the analgesia produced by BNAP; active concentration in hypernociceptive model ([1]; mice chronically treated with 75 mg morphine pellet): active at three fold lower concentration; also recorded: active at concentrations three-fold lower; number of writhes ([1]; s.c., naive mice): dose dependently reduced the number of writhes; EC50 ([2]; 35S-GTP[γS]): 108 ± 69 nM; % max of agonist ([2]; Emax relative to full agonist SNC80): 9.2±2.2%; antinociception of compound alone ([3]; 1.0 μg/5 μL ICV, compared to morphine alone): did not produce significant antinociception; antagonism of morphine antinociception ([3]; 10 mg/kg s.c., any morphine dose tested): did not significantly antagonize morphine antinociception; antinociceptive effect of compound alone ([3]; 10 mg/kg s.c., warm water tail flick, mice): did not produce significant antinociceptive effects; dose giving complete reversal of morphine antinociception ([3]; ICV, dose dependent reversal): 0.3 μg/5 μL; Ki [4]: 722 ± 65 nM
